In data set [1] the test system is MAO-A. The arrangement: method as in doi:10.1016/0223-5234(88)90141-9. Particulars: Figure 1; cited from earlier work.
Data set [2] has as its system MAO-B. Set-up: method as in doi:10.1016/0223-5234(88)90141-9. Particulars: Figure 1; cited from earlier work.
The target of data set [3] is T1, MAO-B (Homo sapiens, UniProt P27338).
T1 construct: purchased Merck
T1 sequence (P27338 1-520): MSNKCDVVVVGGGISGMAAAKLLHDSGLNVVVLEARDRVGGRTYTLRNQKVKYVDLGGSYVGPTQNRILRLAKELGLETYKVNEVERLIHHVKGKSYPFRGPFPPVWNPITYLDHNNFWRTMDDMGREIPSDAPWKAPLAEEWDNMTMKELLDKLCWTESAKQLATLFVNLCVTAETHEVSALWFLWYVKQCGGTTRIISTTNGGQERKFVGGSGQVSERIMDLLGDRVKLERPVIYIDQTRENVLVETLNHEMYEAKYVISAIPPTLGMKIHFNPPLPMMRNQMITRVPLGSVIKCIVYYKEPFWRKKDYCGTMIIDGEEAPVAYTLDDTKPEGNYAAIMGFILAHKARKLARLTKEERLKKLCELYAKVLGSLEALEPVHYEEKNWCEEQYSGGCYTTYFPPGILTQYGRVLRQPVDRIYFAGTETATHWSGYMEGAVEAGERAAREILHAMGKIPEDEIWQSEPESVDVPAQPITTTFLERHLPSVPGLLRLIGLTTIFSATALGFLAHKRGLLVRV
Nature of the data set: MAO-B inhibition, recombinant human enzyme, kynuramine substrate, fluorometric end-point. It counts as biochemical. Particulars: mean ± SD of triplicate, racemic mixtures, NI = no inhibition at 100 µM. The method, then: (§1) The in vitro inhibition studies were carried out according to the published procedure, and the inhibition potencies were expressed as the IC50 values (Figure 2). […] A variety of C3 substituents were explored in this study, which included the phenyl, benzyl and 5-methylthiophen-2-yl moieties, while different substituents on the phenyl (e.g., CH3, OCH3, Cl, Br, F, CF3, OCF3, NO2, PhO) were considered.
(§2) The inhibition potencies of the 1,2,4-oxadiazin-5(6H)-one derivatives were determined using commercially available recombinant human MAO-A and MAO-B (Merck) according to the published procedure. Stock solutions of all compounds were prepared in DMSO and added to the enzyme reactions to yield a final concentration of 4% DMSO. […] Kynuramine was used as enzyme substrate for both MAO isoforms and was oxidized to ultimately form 4-hydroxyquinoline, which is a fluorescent metabolite. The concentrations of 4-hydroxyquinoline in the reactions were measured at end-point by fluorescence spectrometry (λex = 310 nm; λem = 400 nm). Using this approach, the rates of kynuramine oxidation by MAO were measured in the presence of different concentrations of the test inhibitors (0.003–100 µM) as well as in the absence of inhibitor. […] IC50 values were estimated from these plots and were reported as the mean ± SD of triplicate determinations.

Data set [4] concerns the target T2, MAO-A (Homo sapiens, UniProt P21397).
T2 construct: purchased Merck
T2 sequence (P21397 1-527): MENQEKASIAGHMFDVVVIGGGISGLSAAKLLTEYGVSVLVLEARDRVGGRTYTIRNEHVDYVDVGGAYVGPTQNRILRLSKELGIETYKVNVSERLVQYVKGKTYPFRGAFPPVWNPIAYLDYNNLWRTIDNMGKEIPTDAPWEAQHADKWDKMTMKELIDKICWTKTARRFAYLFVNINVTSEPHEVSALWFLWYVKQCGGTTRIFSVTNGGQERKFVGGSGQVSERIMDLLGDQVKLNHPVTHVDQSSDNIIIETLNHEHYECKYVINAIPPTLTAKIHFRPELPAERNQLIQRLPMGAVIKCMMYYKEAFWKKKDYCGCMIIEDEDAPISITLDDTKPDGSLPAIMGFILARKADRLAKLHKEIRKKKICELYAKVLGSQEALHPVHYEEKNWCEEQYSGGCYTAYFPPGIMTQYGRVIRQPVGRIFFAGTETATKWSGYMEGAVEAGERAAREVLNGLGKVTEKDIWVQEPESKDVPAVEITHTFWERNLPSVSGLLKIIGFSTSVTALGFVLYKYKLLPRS
As to the kind of experiment: MAO-A inhibition, recombinant human enzyme, kynuramine substrate, fluorometric end-point. It counts as biochemical. Conditions: mean ± SD of triplicate, racemic mixtures, NI = no inhibition at 100 µM. The procedure:
as §1, §2

For data set [5], the target named is T2, MAO-A. As to the kind of experiment: Mode of MAO-A inhibition, Lineweaver-Burk plots. The data set is classed as biochemical. The procedure:
(§3) To investigate the mode of MAO inhibition, Lineweaver–Burk plots were constructed for the two inhibitors of the respective MAO isoforms, 3f and 5f. For each inhibitor, six plots were constructed using a range of eight substrate concentrations (15–250 µM) for each plot. The inhibitor concentrations were selected to bracket the IC50 values. […] For each isoform, a plot was also constructed in the absence of the inhibitor.
(§4) To investigate the mode of inhibition, Lineweaver–Burk plots were constructed. A set of six plots were constructed for each test inhibitor using five inhibitor concentrations that bracketed the IC50 value as well as one plot in the absence of inhibitor. For each line, eight different concentrations of kynuramine (15–250 µM) were used. Subsequently, the slopes of the Lineweaver–Burk plots were plotted versus inhibitor concentration, and the Ki values were estimated from the x-intercept (Ki = −x-intercept).

The target of data set [6] is T1, MAO-B. As to the kind of experiment: Mode of MAO-B inhibition, Lineweaver-Burk plots. It counts as biochemical. The procedure: as §3, §4

Turning to `N#CCCN1N=C(c2ccc(-c3ccccc3)cc2)OCC1=O` [A, 2-(4-Biphenylyl)-4-(2-cyanoethyl)-4H-1,3,4-oxadiazin-5(6H)-one], the IC50 (usually the concentration at which inhibition is half-maximal) in the data set on MAO-A [1] was 32 µM; in the data set with MAO-B [2] it was 630 nM.
Consider `Cc1ccc(C2=NOCC(=O)N2)cc1` [Compound 3a, 3-(4-Methylphenyl)-4H-1,2,4-oxadiazin-5(6H)-one], for which the melting point – broadly, the temperature, or range, at which the solid turns liquid – fell in the range of 140 to 141 °C. On MAO-B [3], the IC50 worked out at 37.2 ± 0.071 µM. Further, the 50% inhibitory concentration (IC50) at MAO-A [4] worked out at 36.8 ± 1.83 µM.
Taken in the same sequence, the figures for `O=C1CON=C(c2ccc([N+](=O)[O-])cc2)N1` [Compound 3c, 3-(4-Nitrophenyl)-4H-1,2,4-oxadiazin-5(6H)-one] were 248 to 250 °C, 24.4 ± 2.48 µM and 17.3 ± 0.594 µM.
As for `Cc1ccc(C2=NOCC(=O)N2)s1` [Compound 3d, 3-(5-Methylthiophen-2-yl)-4H-1,2,4-oxadiazin-5(6H)-one], the melting point lay within 216 to 218 °C. The half-maximal inhibitory concentration (IC50) at MAO-B [3] was determined as 16.6 ± 1.67 µM. The 50% inhibitory concentration (IC50) at MAO-A [4] worked out at 34.6 ± 5.47 µM.
On the same counts, the results for `COc1ccc(C2=NOCC(=O)N2)cc1` [Compound 3e, 3-(4-Methoxyphenyl)-4H-1,2,4-oxadiazin-5(6H)-one] are 188 to 190 °C, 37.6 ± 9.47 µM and 27.1 ± 3.98 µM.
For the compound `COc1ccc(Oc2ccc(C3=NOCC(=O)N3)cc2)cc1` [Compound 3f, 3-(4-(4-Methoxyphenoxy)phenyl)-4H-1,2,4-oxadiazin-5(6H)-one], on MAO-A [5] (Lineweaver-Burk plots), the “mode of MAO-A inhibition” value was “competitive inhibition”. For the same compound, the inhibition constant Ki (usually the dissociation constant of the complex between target and ligand, obtained from inhibition or displacement) at MAO-A [5] (from replot of Lineweaver-Burk slopes versus inhibitor concentration (1 to 5 µM), kynuramine 15–250 µM) was determined as 1300 nM. For the same compound, the concentration for half-maximal inhibition (IC50) on MAO-B [3] amounted to 3.98 ± 0.518 µM; on MAO-A [4], 3.75 ± 0.212 µM.
In turn, `CC1ON=C(c2ccc([N+](=O)[O-])cc2)NC1=O` (centres unmarked) [Compound 4c, 6-Methyl-3-(4-nitrophenyl)-4H-1,2,4-oxadiazin-5(6H)-one] showed a melting point of 247 to 249 °C. For the same compound, the IC50 at MAO-B [3] was found to be 14.6 ± 0.092 µM. In addition, the IC50 on MAO-A [4] came out at 58.5 ± 4.17 µM.
Compound `Cc1ccc(C2=NOC(C)C(=O)N2)s1` (centres unmarked) [Compound 4d, 6-Methyl-3-(5-methylthiophen-2-yl)-4H-1,2,4-oxadiazin-5(6H)-one] showed a melting point of 167 to 169 °C. Besides, the 50% inhibitory concentration (IC50) on MAO-B [3] was determined as 22.3 ± 0.94 µM. Also, at MAO-A [4], the IC50 turned out to be 46.2 ± 9.22 µM.
Taken in the same sequence, the figures for `CCC1ON=C(c2ccc([N+](=O)[O-])cc2)NC1=O` (centres unmarked) [Compound 5c, 6-Ethyl-3-(4-nitrophenyl)-4H-1,2,4-oxadiazin-5(6H)-one] were 177 to 179 °C, 21 ± 4.09 µM and 57.9 ± 9.84 µM.
In turn, `CCC1ON=C(c2ccc(C)s2)NC1=O` (centres unmarked) [Compound 5d, 6-Ethyl-3-(5-methylthiophen-2-yl)-4H-1,2,4-oxadiazin-5(6H)-one] had a melting point of 151 to 153 °C. The IC50 on MAO-B [3] worked out at 6.14 ± 0.137 µM. Moreover, the IC50 at MAO-A [4] is 58.1 ± 5.28 µM.
On the same counts, the results for `CCC1ON=C(c2ccc(OC)cc2)NC1=O` (centres unmarked) [Compound 5e, 6-Ethyl-3-(4-methoxyphenyl)-4H-1,2,4-oxadiazin-5(6H)-one] are 139 to 141 °C, 6.22 ± 0.596 µM and 44.1 ± 6.05 µM.
Compound `CCC1ON=C(c2ccc(Oc3ccc(OC)cc3)cc2)NC1=O` (centres unmarked) [Compound 5f, 6-Ethyl-3-(4-(4-methoxyphenoxy)phenyl)-4H-1,2,4-oxadiazin-5(6H)-one] returned a melting point of 117 to 119 °C. The “mode of MAO-B inhibition” value at MAO-B [6] (Lineweaver-Burk plots) is “competitive inhibition”. Moreover, the Ki at MAO-B [6] (from replot of Lineweaver-Burk slopes versus inhibitor concentration (0.25 to 1.25 µM), kynuramine 15–250 µM) came out at 350 nM. At MAO-B [3], the 50% inhibitory concentration (IC50) was determined as 0.9 ± 0.05 µM. Besides, the IC50 on MAO-A [4] turned out to be 15.4 ± 1.98 µM.
`CCC1ON=C(c2ccc(F)cc2)NC1=O` (centres unmarked) [Compound 5h, 6-Ethyl-3-(4-fluorophenyl)-4H-1,2,4-oxadiazin-5(6H)-one] displayed a melting point of 153 to 155 °C. Moreover, the IC50 on MAO-B [3] stood at 30.7 ± 2.02 µM. The IC50 at MAO-A [4] was 93 ± 3.23 µM.
On the same counts, the results for `CCC1ON=C(Cc2ccccc2)NC1=O` (centres unmarked) [Compound 5i, 3-Benzyl-6-ethyl-4H-1,2,4-oxadiazin-5(6H)-one] are 97 to 99 °C, more than 100 µM and more than 100 µM.
Taken in the same sequence, the figures for `O=C(O)CC1ON=C(c2cccc(Cl)c2)NC1=O` (centres unmarked) [Compound 8f, 2-(3-(3-Chlorophenyl)-5-oxo-5,6-dihydro-4H-1,2,4-oxadiazin-6-yl)acetic acid] were 211 to 212 °C, more than 100 µM and more than 100 µM.
On the same counts, the results for `O=C(O)CC1ON=C(c2ccc(OC(F)(F)F)cc2)NC1=O` (centres unmarked) [Compound 8g, 2-(5-Oxo-3-(4-(trifluoromethoxy)phenyl)-5,6-dihydro-4H-1,2,4-oxadiazin-6-yl)acetic acid] are 208 to 211 °C, more than 100 µM and more than 100 µM.
